“Also recorded” adds a separate entry of the source.
Tests used:
C2C12 myoblasts = assay: C2C12 myoblast proliferation (EdU incorporation); type: cell-based, mouse; settings: for effect on NAMPT-induced myoblast proliferation: co-administration with NAMPT, 6 h
Protocol: Larvae: Labelling and detection was carried out as previously described (Nguyen, P. D. et al. Muscle stem cells undergo extensive clonal drift during tissue growth via Meox1-mediated induction of G2 cell-cycle arrest. […] Cell culture: Cells were incubated for 1 h in media supplemented with 10 μM EdU. […] Cells were processed using the Click-iTTM EdU Alexa FluroTM 647 imaging Kit (Thermo Fisher) following the manufacturer's protocol. The mouse muscle cell line […]. Serial passaging and differentiation of myogenic cells isolated from dystrophic mouse muscle. Nature 270, 725 (1977) were cultured in growth media (Dulbecco's Modified Eagle Medium (4.5 g/l D-Glucose, No L Glutamine, No Sodium Pyruvate (Gibco))+20% Fetal Bovine Solution-One Shot (Gibco)+1% Glut Max 100x (Gibco)). Cells were maintained at 37° C., 5% CO2. Cells at 70% confluence, passage 8 were extracted from T75 flasks with 0.025% Tryspin EDTA (Gibco), neutralised in growth media, spun at 180×g for 5 min to pellet cells. The cells were then resuspended in 10 ml of fresh growth media. 500 μl of cells were plated on a 8-well on cover glass II (Sarstedt) chamber slide at a density of 1×10^3 cells/ml. Cells were left 4 h at 37° C. to re-attach. For drug treatments, the media were supplemented with appropriate doses and cultured for 6 h.

PAX7+ satellite cells = assay: Primary mouse myoblast mono- and co-cultures, PAX7+ satellite cell proliferation (EdU); type: cell-based; settings: 100 nM inhibitor; for effect on macrophage-stimulated satellite cell proliferation: MB+macrophage co-culture; for effect on NAMPT-stimulated satellite cell proliferation: with hrNAMPT
Protocol: Larvae: Labelling and detection was carried out as previously described (Nguyen, P. D. et al. Muscle stem cells undergo extensive clonal drift during tissue growth via Meox1-mediated induction of G2 cell-cycle arrest. […] Cell culture: Cells were incubated for 1 h in media supplemented with 10 μM EdU. […] Cells were processed using the Click-iTTM EdU Alexa FluroTM 647 imaging Kit (Thermo Fisher) following the manufacturer's protocol. For isolation of primary mouse myoblasts, limb skeletal muscle from E17.5 C57/BL6J mice were minced and digested in 0.125% Trypsin at 37° C. for 20 min. […] Myoblasts were again depleted for fibroblasts prior to co-culturing on gelatin-coated 48 well plates in DMEM+20% FBS+10% L929-conditioned medium. 100,000 myoblasts were plated with either 7,500 MafB/c-Maf deficient (Maf-DKO) macrophages (Aziz, A., Soucie, E., Sarrazin, […]. MafB/c-Maf deficiency enables self-renewal of differentiated functional macrophages. […] For drug treatments, the media were supplemented with appropriate doses and cultured for 24 h.

[1] = tested on: wound-resident muscle stem cells; assay: Larval zebrafish needle stab muscle injury, wound site proliferation (EdU); type: in vivo; settings: needle stab injury, agent alone
Protocol: 4dpf larvae were anaesthetized in 0.01% tricaine (MS-222) (Sigma-Aldrich) in Ringer's solution. Mechanical injures were targeted either to the dorsal or ventral myotome above the cloaca when the larvae is oriented dorsal to the top, anterior to the left. Needle-stick injury was carried out as previously described (Gurevich, D. B. el al. Asymmetric division of clonal muscle stem cells co-ordinate muscle regeneration in vivo. Science 353 6295 aad9969 (2016)). Briefly, the myotome was subjected to a single 30-gauge needle puncture that generates an extensive injury with many damaged muscle fibres. For laser-induced injury, anaesthetised larvae were mounted in a thin layer of 1% low-melt agarose in Ringer's solution. Injuries were carried out using a UV-nitrogen laser pulsed through a coumarin 440 nm dye cell coupled to a Zeiss Axioplan microscope (MicroPoint Laser System, Andor Technology). On average a laser injury required pulses for 5-10 sec from laser beams focused through a 40× water immersion objective. For time-lapse analysis of the immediate response to injury, muscle fibre ablations were achieved using a SIM scanner (Olympus) at 790 nm and 200 msec dwell time at 100% laser power on an Olympus FVMPE-RS upright multi-photon microscope equipped with a 25×/1.05 water immersion objective. Injury-responding macrophages were tracked using the manual tracking plugin in Fiji.
(§1) Cell ablation was carried out as previously described (Pisharath, H. & Parsons, M. J. in Zebrafish 133-143 (Springer, 2009)) with minor modifications. Larvae at the appropriate stage were incubated in 5-10 mM metronidazole (Mtz) (Sigma-Aldrich) in Ringer's solution and daily refreshed until experimental end point. Drug treatments were carried out by incubating 4 dpf needle stick injured larvae in 5 and 10 μM cenicriviroc (CVC) (Med Chem Express) and 5 and 10 μM maraviroc (MVC) (Med Chem Express) in Ringer's solution immediately post injury and refreshed daily.
The effect of drug treatment on laser ablation muscle injury was assayed by treating larvae with 5 μM CVC for 2 h prior to injury and with larvae being maintained in the drug until experimental end point. […] Chemokine supplementation experiments were carried out in plasticware coated with 0.1% bovine serum albumin (BSA) overnight (rinsed in Ringer's solution prior to use) to minimise protein adsorption. Larvae were treated with 57 nM recombinant human visfatin (hrNAMPT(1)) (PeproTech), 57 nM recombinant murine CCL8/MCP-2 (mrCCL8) (PeproTech) and combinations with Mtz and CVC.
Larvae: Labelling and detection was carried out as previously described (Nguyen, P. D. et al. Muscle stem cells undergo extensive clonal drift during tissue growth via Meox1-mediated induction of G2 cell-cycle arrest. Cell Stem Cell 21, 107-119. e106 (2017))^55 with minor alteration. 6 dpf/2 dpi larvae were pulsed with 2.5 nM EdU (Thermo Fisher) for 1h and chased for a further 1.5 h prior to fixation. Cell culture: Cells were incubated for 1 h in media supplemented with 10 μM EdU. Following Edu pulse, C2C12 cells were fixed immediately, while primary mouse myoblast co-cultures were rinsed in PBS, replaced with media and incubated for a further 2 h following which the cells were fixed. Cells were processed using the Click-iT™ EdU Alexa Fluro™ 647 imaging Kit (Thermo Fisher) following the manufacturer's protocol.

[2] = tested on: larval zebrafish skeletal muscle; assay: Larval zebrafish muscle regeneration by birefringence imaging; type: in vivo; settings: larvae soaked in drug after needle stab injury
Protocol: 4dpf larvae were anaesthetized in 0.01% tricaine (MS-222) (Sigma-Aldrich) in Ringer's solution. Mechanical injures were targeted either to the dorsal or ventral myotome above the cloaca when the larvae is oriented dorsal to the top, anterior to the left. Needle-stick injury was carried out as previously described (Gurevich, D. B. el al. Asymmetric division of clonal muscle stem cells co-ordinate muscle regeneration in vivo. Science 353 6295 aad9969 (2016)). Briefly, the myotome was subjected to a single 30-gauge needle puncture that generates an extensive injury with many damaged muscle fibres. […]
Fixed and Immunostained cell culture samples were imaged on a Leica DMi8 inverted widefield microscope with a 10× objective. Birefringence imaging was carried out as previously described (Berger, J., Sztal, T. & Currie, P. D. Quantification of birefringence readily measures the level of muscle damage in zebrafish. Biochemical and biophysical research communications 423, 785-788 (2012)), using a Leica DM IRB upright microscope integrated with the Abrio software (CRI Hinds instruments) using a 5× objective. Images were analysed using the software Fiji^52, whereby the mean grey value of the injury site birefringence is normalised to the region before and after it to calculate relative birefringence of the wound site. […]

Nampt = assay: NAD+/NADH levels after Nampt enzymatic inhibition; type: in vivo, zebrafish; settings: 10 μM
macrophages = assay: Nitroreductase-mediated macrophage ablation by metronidazole, Tg(mpeg1:GAL4FF/UAS:NfsB-mCherry); type: in vivo, zebrafish
Protocol: as §1

mmp9+/mpeg+ macrophages = assay: Metronidazole ablation of mmp9-expressing macrophages, TgBAC(mmp9:EGFP-NTR); type: in vivo, zebrafish
Protocol: as §1
In order to more directly implicate Cluster 2 macrophages in the regulation of regenerative muscle stem cell proliferation, we specifically ablated these cells during the repair process, using an alternative mmp9 promoter-driven transgenic line that expressed the nitroreductase enzyme fused to EGFP (TgBAC(mmp9:EGFP-NTR)^24). These larvae were subjected to a needle stab muscle injury at 4 dpf (0 dpi). At 1.75 dpi larvae were treated with 5 mM Mtz, a dosing that specifically ablated 77.94% of mmp9^+/mpeg^+-macrophages present in the injury zone (FIG. 10b-d). Specific ablation of these cells led to a significant skeletal muscle repair deficit (FIG. 3p-q) and a severe reduction in muscle stem cell proliferation to levels similar to those evident upon mpeg^+-dwelling macrophage ablation, documented above (FIG. 2f-h, FIG. 3r, FIG. 10e-g). Collectively, these analyses indicate that Cluster 2 contains a specific mmp9^+ muscle stem cell-associated, dwelling macrophage subset required for muscle stem cell proliferation during muscle regeneration

larval zebrafish = assay: Tolerability of metronidazole in larval zebrafish; type: in vivo; settings: 10 mM Mtz
Protocol: as §1

Row | Compound | effect on NAMPT-induced myoblast proliferation (C2C12 myoblasts) | effect on macrophage-stimulated satellite cell proliferation (PAX7+ satellite cells) | effect on NAMPT-stimulated satellite cell proliferation (PAX7+ satellite cells) | wound site muscle stem cell proliferation [1] | muscle regeneration (birefringence) [2] | myoblast proliferation, factor added alone (C2C12 myoblasts; 6 h in growth media) | larval NAD+/NADH levels (Nampt) | time to start of macrophage ablation after Mtz addition (macrophages; 5 mM Mtz) [h] | macrophage ablation (macrophages; 5 mM Mtz for 24 h from 4 dpf, trunk macrophages at 5 dpf) [%] | time until majority of trunk macrophages ablated (macrophages; Mtz) [h] | ablation of mmp9+/mpeg+ macrophages (mmp9+/mpeg+ macrophages; 5 mM Mtz at 1.75 dpi) [%] | number of mmp9+/mpeg+ macrophages in injury zone (mmp9+/mpeg+ macrophages; Mtz treated) | number of mmp9-/mpeg+ macrophages in injury zone (mmp9+/mpeg+ macrophages; Mtz treated) | lethality, needle stab injured larvae (larval zebrafish) | tolerability, uninjured larvae (larval zebrafish)
1 | maraviroc [MVC, reference compound] | abolishes NAMPT's pro-proliferative response; also recorded: proliferative response was blocked | pro-proliferative response is abolished | an effect that was abolished | reduction in the proliferation of pax3a^+ myogenic stem cells; also recorded: reduction in the proliferation of par3a^+ myogenic stem cells | marked regeneration deficit; also recorded: highly significant regeneration deficit |  |  |  |  |  |  |  |  |  | 
2 | CCCCOCCOc1ccc(-c2ccc3c(c2)/C=C(/C(=O)Nc2ccc([S@@+]([O-])Cc4cncn4CCC)cc2)CCCN3CC(C)C)cc1 [CVC, cenicriviroc, reference compound] | abolishes NAMPT's pro-proliferative response; also recorded: proliferative response was blocked | a response that is inhibited; also recorded: reduced satellite cell proliferation in MB+MΦ culture conditions to levels evident in MB alone or MB+3T3 cultures | pro-proliferative response is abolished; also recorded: an effect that was abolished | proliferation is inhibited by CVC addition; also recorded: resulted in a proliferation deficit; also recorded: reduction in the proliferation of pax3a^+ myogenic stem cells; also recorded: reduction in the proliferation of par3a^+ myogenic stem cells | marked regeneration deficit; also recorded: highly significant regeneration deficit |  |  |  |  |  |  |  |  |  | 
3 | N#CN=C(NCCCCCCOc1ccc(Cl)cc1)Nc1ccncc1 [GMX1778, reference compound] | does not impact its effect on myoblast proliferation; also recorded: did not affect the increased myoblast proliferation |  |  | had no effect on muscle stem cell proliferation in the injury zone; also recorded: did not alter muscle stem cell proliferation |  | no negative effect on the basal level of C2C12 proliferation | severe reduction in larval NAD^+/NADH levels |  |  |  |  |  |  |  | 
4 | Cc1ncc([N+](=O)[O-])n1CCO [Mtz, metronidazole] |  |  |  |  |  |  |  | 3 | 77 | 10 to 13 | 77.94 | 2.18±1.19 | 6.65±1.50 | significant lethality | able to tolerate

— US20240041922A1, “METHODS AND COMPOSITIONS” (Monash University, priority 2020, published 2024)
